Experimental findings from US6264916A, “N,N-dimethyldiatrizoic acid and its conjugates as hepatobiliary agents for x-ray CT imaging” (Bracco Research, USA, priority 2000, dated 2001) are described below.

This data set can be described thus: Biodistribution studies in mice (radioiodinated compounds, % ID/g-tissue). In kind it is in vivo. The conditions noted are these: tracer level, but MDTA-Na 0.18M and MDTA-NMG 0.19M; for tissue uptake at 1 min / tissue uptake at 5 min / tissue uptake at 1 h: mouse, iv. How it is done:
All of the new analogs were radiolabeled in order to determine their physical and biological properties. The iodinated compounds were exchange-labeled by heating with Na^125 I in the presence of CuSO4 and Na2 S2 O5 in glacial acetic acid at 135-150° C. for 1 h, followed by HPLC purification using a nucleosil C18 column and CH3 CN--H2 O containing 0.1% TFA as an eluent. In some cases (e.g. the compound of Example 12) the radioiodination was carried out by heating with Na*I in HOAc--NaOAc (pH 4.6) at 100° C. for 15 min. In all cases radiolabeled compounds of acceptable radiochemical purity and specific activity were obtained.
The compound of formula I, N,N-dimethyl-diatrizoic acid, was similarly radiolabeled for biological studies.
a) For intravenous administration the preferred vehicle for the compounds of formula I, II and III is bovine serum albumin, however, other physiologically acceptable vehicles may also be used.
Biodistribution studies were conducted in mice and the results are given in Table I. X-Ray CT images of MDTA in mice and rats indicate that these hydrophobic diatrizoate analogs may be of promise for liver imaging.

[1] abbreviates: blood, blood, 1', read-out: Biodistribution, Blood 1'.
Where [2] appears, read: blood, blood, 5', read-out: Biodistribution, Blood 5'.
Setting [3] is: blood, blood, 60', read-out: Biodistribution, Blood 60'.
Setting [4] is: kidney, kidney, 1', read-out: Biodistribution, Kidney 1'.
The mark [5] stands for this setting: kidney, kidney, 5', read-out: Biodistribution, Kidney 5'.
The mark [6] stands for this setting: kidney, kidney, 60', read-out: Biodistribution, Kidney 60'.
Where [7] appears, read: liver, liver, 1', read-out: Biodistribution, Liver 1'.
Setting [8] is: liver, liver, 5', read-out: Biodistribution, Liver 5'.
Where [9] appears, read: liver, liver, 60', read-out: Biodistribution, Liver 60'.
Where [10] appears, read: small/large intestine, small/large intestine, 1', read-out: Biodistribution, Sm/Lrg. Intestine 1'.
Where [11] appears, read: small/large intestine, small/large intestine, 5', read-out: Biodistribution, Sm/Lrg. Intestine 5'.
Where [12] appears, read: small/large intestine, small/large intestine, 60', read-out: Biodistribution, Sm/Lrg. Intestine 60'.

Read-outs that look alike come from different tables or passages of the source.

On to “9(10)-N-(4-(((3,5-Bis-(acetylmethylamino)-2,4,6-triiodophenyl)carbonyl)amino)benzoyl)amino-octadecanoic acid [9/10-F-18P-MDTA]”, for which the “Biodistribution, Blood 1'” value (blood, 1', 1 min) is on record as 6.16 % ID/g-tissue. Besides, where the note is “blood, 5', 5 min”, the “Biodistribution, Blood 5'” value stood at 0.46 % ID/g-tissue. Besides, the “Biodistribution, Blood 60'” value (blood, 60', 60 min) worked out at 0.26 % ID/g-tissue. The “Biodistribution, Kidney 1'” value (kidney, 1', 1 min) is 3.32 % ID/g-tissue. Also, the “Biodistribution, Kidney 5'” value (kidney, 5', 5 min) was 2.09 % ID/g-tissue. The “Biodistribution, Kidney 60'” value (kidney, 60', 60 min) was determined as 0.39 % ID/g-tissue. For the same compound, the “Biodistribution, Liver 1'” value (liver, 1', 1 min) is 30.29 % ID/g-tissue. Besides, the “Biodistribution, Liver 5'” value (liver, 5', 5 min) worked out at 32.33 % ID/g-tissue. Besides, the “Biodistribution, Liver 60'” value (liver, 60', 60 min) was 3.16 % ID/g-tissue. For the setting “small/large intestine, 1', 1 min”, the “Biodistribution, Sm/Lrg. Intestine 1'” value was 0.51 % ID/g-tissue. The “Biodistribution, Sm/Lrg. Intestine 5'” value (small/large intestine, 5', 5 min) came to 2.71 % ID/g-tissue. The “Biodistribution, Sm/Lrg. Intestine 60'” value (small/large intestine, 60', 60 min) is 20.21 % ID/g-tissue.
Turning to `CC(=O)N(C)c1c(I)c(C(=O)NCC(=O)O)c(I)c(N(C)C(C)=O)c1I` [Example F2-DP-MDTA, 4-[[[3,5-Bis(acetylmethylamino)-2,4,6-triiodophenyl]carbonyl]amino]-acetic acid], the tissue uptake at 1 min under setting [1] worked out at 4.57 %ID/g, the tissue uptake at 1 min under setting [4] was determined as 17.1 %ID/g, the tissue uptake at 1 min under setting [7] turned out to be 12.8 %ID/g and the tissue uptake at 1 min under setting [10] was found to be 1.28 %ID/g. For the same compound, the tissue uptake at 5 min by setting is: under setting [2], 0.81 %ID/g; under setting [5], 5.69 %ID/g; under setting [8], 10.6 %ID/g; under setting [11], 8.81 %ID/g. For the same compound, the tissue uptake at 1 h turned out to be 0.03 %ID/g under setting [3], 0.16 %ID/g under setting [6], 1.03 %ID/g under setting [9] and 16.5 %ID/g under setting [12].
Take `CC(=O)N(C)c1c(I)c(C(=O)Nc2ccc(CC(=O)O)cc2)c(I)c(N(C)C(C)=O)c1I` [Example F2-P-MDTA, 4-(((3,5-Bis(Acetylmethylamino)-2,4,6-triiodophenyl)carbonyl)amino)-benzeneacetic acid]: the tissue uptake at 1 min is, setting by setting: under setting [1], 4.83 %ID/g; under setting [4], 11.5 %ID/g; under setting [7], 17.9 %ID/g; under setting [10], 2.47 %ID/g. Also, the tissue uptake at 5 min by setting is: under setting [2], 0.96 %ID/g; under setting [5], 5.83 %ID/g; under setting [8], 12.9 %ID/g; under setting [11], 9.54 %ID/g. The tissue uptake at 1 h under setting [3] was 0.04 %ID/g, the tissue uptake at 1 h under setting [6] was found to be 0.33 %ID/g, the tissue uptake at 1 h under setting [9] turned out to be 2.25 %ID/g and the tissue uptake at 1 h under setting [12] came to 25.4 %ID/g.
On to `CC(=O)N(C)c1c(I)c(C(=O)NCCCC(=O)O)c(I)c(N(C)C(C)=O)c1I` [Example F4-DP-MDTA, 4-[[[3,5-Bis(acetylmethylamino)-2,4,6-triiodophenyl]carbonyl]amino]-butanoic acid], for which the tissue uptake at 1 min runs as follows: under setting [1], 4.91 %ID/g; under setting [4], 17.9 %ID/g; under setting [7], 16.1 %ID/g; under setting [10], 1.73 %ID/g. For the same compound, the tissue uptake at 5 min under setting [2] came to 0.82 %ID/g, the tissue uptake at 5 min under setting [5] is 7.89 %ID/g, the tissue uptake at 5 min under setting [8] came to 11.9 %ID/g and the tissue uptake at 5 min under setting [11] is 11.3 %ID/g. Also, the tissue uptake at 1 h amounted to 0.12 %ID/g under setting [3], 0.05 %ID/g under setting [6], 0.33 %ID/g under setting [9] and 21.2 %ID/g under setting [12].
`CC(=O)N(C)c1c(I)c(C(=O)Nc2ccc(CCCC(=O)O)cc2)c(I)c(N(C)C(C)=O)c1I` [Example F4-P-MDTA, 4-(((3,5-Bis(acetylmethylamino)-2,4,6-triiodophenyl)carbonyl)amino)benzenebutyric acid]: the tissue uptake at 1 min stood at 3.55 %ID/g under setting [1], 5.63 %ID/g under setting [4], 29.6 %ID/g under setting [7] and 1.71 %ID/g under setting [10]. Further, the tissue uptake at 5 min is 0.57 %ID/g under setting [2], 5.41 %ID/g under setting [5], 29.4 %ID/g under setting [8] and 4.56 %ID/g under setting [11]. Further, the tissue uptake at 1 h runs as follows: under setting [3], 0.07 %ID/g; under setting [6], 0.63 %ID/g; under setting [9], 6.13 %ID/g; under setting [12], 20.4 %ID/g.
Consider `CC(=O)N(C)c1c(I)c(C(=O)NCCCCCCC(=O)O)c(I)c(N(C)C(C)=O)c1I` [Example F7-DP-MDTA], for which the tissue uptake at 1 min was 2.44 %ID/g under setting [1], 9.5 %ID/g under setting [4], 17.1 %ID/g under setting [7] and 4.92 %ID/g under setting [10]. The tissue uptake at 5 min by setting is: under setting [2], 0.57 %ID/g; under setting [5], 8.33 %ID/g; under setting [8], 9.81 %ID/g; under setting [11], 14.5 %ID/g. Besides, the tissue uptake at 1 h stood at 0.05 %ID/g under setting [3], 0.16 %ID/g under setting [6], 0.77 %ID/g under setting [9] and 22.2 %ID/g under setting [12].
Consider `CC(=O)N(C)c1c(I)c(C(=O)Nc2ccc(CCCCCCC(=O)O)cc2)c(I)c(N(C)C(C)=O)c1I` [Example F7-P-MDTA, 4-[[[3,5-Bis(acetylmethylamino)-2,4,6-triiodophenyl]carbonyl]amino]benzeneheptanoic acid], for which the tissue uptake at 1 min under setting [1] was 2.38 %ID/g, the tissue uptake at 1 min under setting [4] was 4.28 %ID/g, the tissue uptake at 1 min under setting [7] was found to be 39.5 %ID/g and the tissue uptake at 1 min under setting [10] was found to be 1.38 %ID/g. Moreover, the tissue uptake at 5 min under setting [2] came out at 0.57 %ID/g, the tissue uptake at 5 min under setting [5] was 2.94 %ID/g, the tissue uptake at 5 min under setting [8] worked out at 37.2 %ID/g and the tissue uptake at 5 min under setting [11] was determined as 6.2 %ID/g. Moreover, the tissue uptake at 1 h reads like this: under setting [3], 0.15 %ID/g; under setting [6], 0.3 %ID/g; under setting [9], 5.02 %ID/g; under setting [12], 26.8 %ID/g.
For `CC(=O)N(C)c1c(I)c(C(=O)Nc2ccc(CCCCCCCCCCC(=O)O)cc2)c(I)c(N(C)C(C)=O)c1I` [Example F11-P-MDTA, 4-[[[3,5-Bis(acetylmethylamino)-2,4,6-triiodophenyl]carbonyl]amino]benzeneundecanoic acid], the tissue uptake at 1 min reads like this: under setting [1], 9.14 %ID/g; under setting [4], 6.21 %ID/g; under setting [7], 57.9 %ID/g; under setting [10], 1.14 %ID/g. Also, the tissue uptake at 5 min under setting [2] was 0.74 %ID/g, the tissue uptake at 5 min under setting [5] was determined as 3.63 %ID/g, the tissue uptake at 5 min under setting [8] turned out to be 60.1 %ID/g and the tissue uptake at 5 min under setting [11] came out at 3.06 %ID/g. For the same compound, the tissue uptake at 1 h is, setting by setting: under setting [3], 0.08 %ID/g; under setting [6], 0.1 %ID/g; under setting [9], 2.96 %ID/g; under setting [12], 38.2 %ID/g.
For the compound `CC(=O)N(C)c1c(I)c(C(=O)NCCCCCCCCCCCC(=O)O)c(I)c(N(C)C(C)=O)c1I` [Example F12-DP-MDTA], the tissue uptake at 1 min runs as follows: under setting [1], 2.38 %ID/g; under setting [4], 9.89 %ID/g; under setting [7], 28.9 %ID/g; under setting [10], 2.28 %ID/g. The tissue uptake at 5 min reads like this: under setting [2], 0.39 %ID/g; under setting [5], 5.72 %ID/g; under setting [8], 16.6 %ID/g; under setting [11], 11.6 %ID/g. The tissue uptake at 1 h reads like this: under setting [3], 0.04 %ID/g; under setting [6], 0.07 %ID/g; under setting [9], 2.17 %ID/g; under setting [12], 28 %ID/g.
